The values below come from US8809270B2, “Method for reducing cardiovascular morbidity and mortality in prediaetic patients and patients with type 2 diabetes” (priority 2003, dated 2014).

For assay [1], the system named is patients with various levels of fasting hypertriglyceridemia. As to the kind of experiment: Two multicenter placebo-controlled AMARYL registration studies: lipid data. The class given is in vivo, human. On the set-up: Triglycerides % reduction from baseline / Non-HDL Cholesterol Total % reduction from baseline: concentration or dose not given beside the values; Triglycerides Baseline / Triglycerides Endpoint: unit not given beside the values. The text has this:
There is evidence from the literature that use of sulfonylurea (SU) as initial drug treatment of the type 2 patient with DDL exerts a weaker effect on reduction of hypertriglyceridemia, or on increasing HDL-C, than is seen with insulin, and/or that the effects are less durable. In order to compare the effects of Lantus LANTUS (insulin glargine) on fasting TG and non-HDL-C levels with oral agents from the sulfonylurea class, the glimepiride (Amaryl® AMARYL) database at Aventis was examined.

In assay [2] the test system is type 2 diabetic patients already treated with other oral antidiabetic drugs. As to the kind of experiment: Study 4014: lipid data, LANTUS versus rosiglitazone. The class given is in vivo, human. Set-up: Triglycerides % reduction from baseline / Triglycerides % reduction from baseline, LANTUS-AVANDIA / Non-HDL Cholesterol Total % reduction from baseline: concentration or dose not given beside the values; Triglycerides Baseline / Triglycerides Endpoint: unit not given beside the values.

Assay [3] deals with abnormalities of DDL. To be noted: in vivo; cited from earlier work.
Assay [4] has as its system IGT. To be noted: statistically significant; cited from earlier work.
For assay [5] the following is noted: after injection; cited from earlier work.
For assay [6], the system named is diabetic patients hospitalized with acute MI. To be noted: IV insulin-glucose infusion in-hospital followed by intensive chronic outpatient insulin, versus standard treatment; cited from earlier work.

For the molecule `CCC1=C(C)CN(C(=O)NCCc2ccc(S(=O)(=O)NC(=O)N[C@H]3CC[C@H](C)CC3)cc2)C1=O` [AMARYL, glimepiride], in assay [1] (TG baseline range 200-500), the “HDL Baseline” value turned out to be 38, the “HDL Endpoint” value turned out to be 39, the “Non-HDL Cholesterol Total % reduction from baseline” value stood at 3% and the “Non-HDL Cholesterol Total Baseline” value is on record as 197. In assay [1] (TG baseline range 200-500), the “Non-HDL Cholesterol Total Endpoint” value turned out to be 191, the “Triglycerides % reduction from baseline” value came to 12%, the “Triglycerides Baseline” value was found to be 299 and the “Triglycerides Endpoint” value was determined as 265. Moreover, in assay [1] (TG baseline range 300-500), the “HDL Baseline” value is listed as 36, the “HDL Endpoint” value is 37, the “Non-HDL Cholesterol Total % reduction from baseline” value was 3% and the “Non-HDL Cholesterol Total Baseline” value is listed as 203. For the same molecule, in assay [1] (TG baseline range 300-500), the “Non-HDL Cholesterol Total Endpoint” value came out at 198, the “Triglycerides % reduction from baseline” value is 18%, the “Triglycerides Baseline” value is recorded as 390 and the “Triglycerides Endpoint” value is reported as 321. Besides, in assay [1] (TG baseline range 300-1000), the “HDL Baseline” value worked out at 36, the “HDL Endpoint” value amounted to 37, the “Non-HDL Cholesterol Total % reduction from baseline” value is recorded as 5% and the “Non-HDL Cholesterol Total Baseline” value stood at 209. Further, in assay [1] (TG baseline range 300-1000), the “Non-HDL Cholesterol Total Endpoint” value came to 198, the “Triglycerides % reduction from baseline” value worked out at 23%, the “Triglycerides Baseline” value was determined as 459 and the “Triglycerides Endpoint” value came out at 350. Also, in assay [1] (TG baseline range 500-1000), the “HDL Baseline” value was found to be 37, the “HDL Endpoint” value is reported as 39, the “Non-HDL Cholesterol Total % reduction from baseline” value came to 10% and the “Non-HDL Cholesterol Total Baseline” value was determined as 224. For the same molecule, in assay [1] (TG baseline range 500-1000), the “Non-HDL Cholesterol Total Endpoint” value is on record as 200, the “Triglycerides % reduction from baseline” value came to 33%, the “Triglycerides Baseline” value was determined as 662 and the “Triglycerides Endpoint” value came out at 445. Besides, in assay [1] (TG baseline range All), the “LDL Baseline” value was 142 and the “LDL Endpoint” value amounted to 140.

Consider `CN(CCOc1ccc(CC2SC(=O)NC2=O)cc1)c1ccccn1` (stereo not shown) [AVANDIA, rosiglitazone], for which, in assay [2] (TG baseline range 200-500), the “HDL Baseline” value worked out at 38, the “HDL Endpoint” value came out at 40, the “LDL Baseline” value is recorded as 99 and the “LDL Endpoint” value came to 129. In assay [2] (TG baseline range 200-500), the “Non-HDL Cholesterol Total Endpoint” value is given as 59, the “Triglycerides % reduction from baseline” value stood at 0.1%, the “Triglycerides Baseline” value was found to be 294 and the “Triglycerides Endpoint” value is listed as 291. In addition, in assay [2] (TG baseline range 300-500), the “HDL Baseline” value was found to be 38, the “HDL Endpoint” value is 41, the “Non-HDL Cholesterol Total % reduction from baseline” value is listed as −17% and the “Non-HDL Cholesterol Total Baseline” value is listed as 177. Besides, in assay [2] (TG baseline range 300-500), the “Non-HDL Cholesterol Total Endpoint” value was found to be 207, the “Triglycerides % reduction from baseline” value was 9%, the “Triglycerides Baseline” value came to 376 and the “Triglycerides Endpoint” value was 341. In assay [2] (TG baseline range 500-1000), the “HDL Baseline” value is on record as 39, the “HDL Endpoint” value amounted to 38, the “Non-HDL Cholesterol Total Baseline” value is reported as 231 and the “Non-HDL Cholesterol Total Endpoint” value is listed as 261. Besides, in assay [2] (TG baseline range 500-1000), the “Triglycerides Baseline” value stood at 572 and the “Triglycerides Endpoint” value worked out at 649. In assay [2] (in vivo), the “effect on DDL parameters compared with LANTUS” value was “significantly inferior”. Also, in assay [3], the “effects on the abnormalities of DDL” value is recorded as “almost no effect”.

As to `CN(C)C(=N)N=C(N)N` [Metformin], the “reduction in the rate of progression to type 2 DM” value in assay [4] is on record as 31%.

On to “NPH insulin: a moderate- to long-acting insulin with a pronounced peak in plasma activity”, for which the “time of pronounced peak in plasma activity / peak effect after injection” value in assay [5] is 3 to 6 h.

In the case of “insulin: IV insulin-glucose infusion followed by intensive chronic outpatient treatment with insulin (DIGAMI study)”, the “reduction of all-cause mortality” value in assay [6] is recorded as 28%.
